# The supplement of paper PMC10307832
# Compound: C[C@@H](Oc1cc(-c2cnn(C3CCNCC3)c2)cnc1N)c1c(Cl)ccc(F)c1Cl [Crizotinib] + Cc1cc(Nc2cc(N3CCN(C)CC3)nc(Sc3ccc(NC(=O)C4CC4)cc3)n2)n[nH]1 [Tozasertib] (partner 0.1 µM)
# Assay: relative viability (nuclei count vs DMSO), 5 days (fraction); higher = more cells survive
# Conditions: first compound 1 µM
# Outline: (§1)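 Relative viability equals treated-well nuclei counts divided by vehicle-well nuclei counts. Counts came from 4× images of lung cancer cell lines grown in 1536-well plates for 5 days after pin-tool dosing on the day after seeding. Dosing used one drug alone or a fixed anchor-drug dose plus five library-drug doses (not always all listed) in √10 steps, and values are medians of duplicate plates.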
row,Cell Line,relative viability
1,H3255,0.655
2,HARA,0.116
3,HCC-15,0.339
4,HCC-44,1.01
5,HCC-78,0.442
6,HCC-366,0.136
7,HCC-827,0.415
8,HOP-62,0.383
9,LC-2-ad,0.47
10,LCLC-97TM1,0.224
11,LCLC-103H,0.578
12,LK-2,0.19
13,LOU-NH91,0.677
14,NCI-H520,0.458
15,NCI-H661,0.355
16,NCI-H1623,0.43
17,NCI-H1650,0.415
18,NCI-H2009,0.665
19,NCI-H2023,0.271
20,NCI-H2228,0.182
21,SK-LU-1,0.27
22,SK-MES-1,0.845
23,SW 1573,0.162
24,UMC-11,0.208

# Compound: C[C@@H](Oc1cc(-c2cnn(C3CCNCC3)c2)cnc1N)c1c(Cl)ccc(F)c1Cl [Crizotinib] + O=C(CCCCCCC(=O)Nc1ccccc1)NO [Vorinostat] (partner 1 µM)
# Assay: as above
# Conditions: first compound 0.01 µM
# Outline: as §1
row,Cell Line,relative viability
1,201T,0.899
2,A-427,0.836
3,ABC-1,1.04
4,BEN,0.553
5,CAL-12T,0.855
6,COR-L23,0.43
7,COR-L 105,0.824
8,ChaGo-K-1,0.703
9,EKVX,0.455
10,EMC-BAC-2,0.524
11,EPLC-272H,0.41
12,H3255,0.782
13,HARA,0.494
14,HCC-15,0.802
15,HCC-44,1.03
16,HCC-78,0.418
17,HCC-366,0.336
18,HCC-827,0.873

row,Cell Line,relative viability
1,HOP-62,0.638
2,IA-LM,0.977
3,LC-2-ad,0.703
4,LCLC-97TM1,0.672
5,LCLC-103H,0.716
6,LK-2,0.346
7,LOU-NH91,0.893
8,NCI-H520,0.568
9,NCI-H661,0.706
10,NCI-H1650,0.471
11,NCI-H2009,0.707
12,NCI-H2023,0.573
13,NCI-H2228,0.46
14,SK-LU-1,0.73
15,SK-MES-1,0.993
16,SW 1573,0.824
17,UMC-11,0.271

# Same assay, conditions: first compound 0.03162 µM
row,Cell Line,relative viability
1,201T,1.01
2,A-427,0.871
3,ABC-1,1.06
4,BEN,0.55
5,CAL-12T,0.788
6,COR-L23,0.418
7,COR-L 105,0.96
8,ChaGo-K-1,0.706
9,EKVX,0.662
10,EMC-BAC-2,0.418
11,EPLC-272H,0.398
12,H3255,0.841
13,HARA,0.491
14,HCC-15,0.875
15,HCC-44,1.13
16,HCC-78,0.388
17,HCC-366,0.423
18,HCC-827,0.602

row,Cell Line,relative viability
1,HOP-62,0.672
2,IA-LM,0.958
3,LC-2-ad,0.656
4,LCLC-97TM1,0.697
5,LCLC-103H,0.869
6,LK-2,0.29
7,LOU-NH91,0.927
8,NCI-H520,0.68
9,NCI-H661,0.777
10,NCI-H1650,0.594
11,NCI-H2009,0.723
12,NCI-H2023,0.8
13,NCI-H2228,0.843
14,SK-LU-1,0.727
15,SK-MES-1,1.11
16,SW 1573,0.947
17,UMC-11,0.424

# Same assay, conditions: first compound 0.1 µM
row,Cell Line,relative viability
1,201T,0.98
2,A-427,0.876
3,ABC-1,1.22
4,BEN,0.628
5,CAL-12T,0.647
6,COR-L23,0.484
7,COR-L 105,0.696
8,ChaGo-K-1,0.712
9,EKVX,0.708
10,EMC-BAC-2,0.494
11,EPLC-272H,0.361
12,H3255,0.765
13,HARA,0.532
14,HCC-15,0.926
15,HCC-44,1.18
16,HCC-78,0.402
17,HCC-366,0.31
18,HCC-827,0.917

row,Cell Line,relative viability
1,HOP-62,0.613
2,IA-LM,1.07
3,LC-2-ad,0.699
4,LCLC-97TM1,0.686
5,LCLC-103H,0.841
6,LK-2,0.314
7,LOU-NH91,0.989
8,NCI-H520,0.732
9,NCI-H661,0.731
10,NCI-H1650,0.527
11,NCI-H2009,0.63
12,NCI-H2023,0.568
13,NCI-H2228,0.402
14,SK-LU-1,0.71
15,SK-MES-1,1.09
16,SW 1573,0.729
17,UMC-11,0.407

# Same assay, conditions: first compound 0.3162 µM
row,Cell Line,relative viability
1,201T,0.974
2,BEN,0.506
3,CAL-12T,0.713
4,COR-L23,0.4
5,COR-L 105,0.858
6,ChaGo-K-1,0.4
7,EKVX,0.712
8,EPLC-272H,0.403
9,H3255,0.784
10,HARA,0.54
11,HCC-15,0.847
12,HCC-44,1.01
13,HCC-78,0.336
14,HCC-827,0.884
15,HOP-62,0.3
16,IA-LM,0.949
17,LCLC-97TM1,0.223
18,LCLC-103H,0.434
19,LK-2,0.252
20,NCI-H520,0.774
21,NCI-H661,0.841
22,NCI-H1650,0.68
23,NCI-H2009,0.756
24,NCI-H2023,0.453
25,NCI-H2228,0.57
26,SK-LU-1,0.801
27,SK-MES-1,0.981
28,SW 1573,0.55
29,UMC-11,0.356

# Same assay, conditions: first compound 1 µM
row,Cell Line,relative viability
1,201T,1.04
2,A-427,0.899
3,ABC-1,1.02
4,BEN,0.573
5,CAL-12T,0.725
6,COR-L23,0.471
7,COR-L 105,0.893
8,ChaGo-K-1,0.727
9,EKVX,0.637
10,EMC-BAC-2,0.365
11,EPLC-272H,0.581
12,H3255,0.999
13,HARA,0.523
14,HCC-15,0.875
15,HCC-44,1.14
16,HCC-78,0.437
17,HCC-366,0.403

row,Cell Line,relative viability
1,HOP-62,0.685
2,IA-LM,0.907
3,LC-2-ad,0.704
4,LCLC-97TM1,0.658
5,LCLC-103H,0.8
6,LK-2,0.277
7,LOU-NH91,0.836
8,NCI-H520,0.722
9,NCI-H661,0.775
10,NCI-H1650,0.619
11,NCI-H2009,0.76
12,NCI-H2023,0.621
13,NCI-H2228,0.683
14,SK-LU-1,0.761
15,SK-MES-1,1.07
16,SW 1573,0.671
17,UMC-11,0.427

# Compound: CC(C)C[C@H](NC(=O)[C@H](CCc1ccccc1)NC(=O)CN1CCOCC1)C(=O)N[C@@H](Cc1ccccc1)C(=O)N[C@@H](CC(C)C)C(=O)[C@@]1(C)CO1 [Carfilzomib] + NC(=O)Nc1cc(-c2cccc(F)c2)sc1C(=O)N[C@H]1CCCNC1 [AZD7762] (partner 0.2 µM)
# Assay: as above
# Conditions: first compound 0.001 µM
# Outline: as §1
row,Cell Line,relative viability
1,201T,0.67
2,A-427,0.725
3,BEN,0.717
4,CAL-12T,0.607
5,ChaGo-K-1,0.813
6,EKVX,0.318
7,EMC-BAC-2,1.13
8,EPLC-272H,0.195
9,H3255,0.849
10,HARA,0.454
11,HCC-15,1.12
12,HCC-44,1.01
13,HCC-78,0.505
14,HCC-366,0.231
15,HCC-827,0.194
16,HOP-62,0.619
17,LC-2-ad,0.798
18,LCLC-97TM1,0.219
19,LCLC-103H,0.767
20,LK-2,0.369
21,LOU-NH91,0.741
22,NCI-H1703,0.121

# Same assay, conditions: first compound 0.003162 µM
row,Cell Line,relative viability
1,201T,0.574
2,A-427,0.82
3,ABC-1,0.786
4,BEN,0.619
5,CAL-12T,0.719
6,ChaGo-K-1,0.898
7,EKVX,0.782
8,EMC-BAC-2,1.22
9,EPLC-272H,0.253
10,H3255,0.982
11,HARA,0.232
12,HCC-15,1.29
13,HCC-44,1.02
14,HCC-78,0.772
15,HCC-366,0.276
16,HCC-827,0.202
17,HOP-62,0.699
18,LC-2-ad,0.913
19,LCLC-97TM1,0.246
20,LCLC-103H,0.849
21,LK-2,0.519
22,LOU-NH91,0.778
23,NCI-H1703,0.168
24,NCI-H1792,0.96

# Same assay, conditions: first compound 0.01 µM
row,Cell Line,relative viability
1,201T,0.626
2,A-427,0.696
3,ABC-1,0.506
4,BEN,0.657
5,CAL-12T,0.787
6,ChaGo-K-1,0.855
7,EKVX,0.756
8,EMC-BAC-2,1.22
9,EPLC-272H,0.209
10,H3255,1.13
11,HARA,0.398
12,HCC-15,1.31
13,HCC-44,1.03
14,HCC-78,0.789
15,HCC-366,0.251
16,HCC-827,0.207
17,HOP-62,0.404
18,LC-2-ad,0.856
19,LCLC-97TM1,0.252
20,LCLC-103H,0.759
21,LK-2,0.399
22,LOU-NH91,0.679
23,NCI-H1703,0.128
24,NCI-H1792,0.742

# Same assay, conditions: first compound 0.03162 µM
row,Cell Line,relative viability
1,201T,0.591
2,A-427,0.527
3,BEN,0.59
4,CAL-12T,0.586
5,ChaGo-K-1,0.542
6,EMC-BAC-2,1.06
7,EPLC-272H,0.159
8,H3255,0.795
9,HARA,0.18
10,HCC-15,1.12
11,HCC-44,0.988
12,HCC-78,0.492
13,HCC-366,0.419
14,HCC-827,0.201
15,HOP-62,0.173
16,LC-2-ad,0.794
17,LCLC-97TM1,0.158
18,LCLC-103H,0.778
19,LK-2,0.0916
20,LOU-NH91,0.309
21,NCI-H1703,0.107
22,NCI-H1792,0.38

# Same assay, conditions: first compound 0.1 µM
row,Cell Line,relative viability
1,201T,0.461
2,A-427,0.173
3,ABC-1,1.01
4,BEN,0.409
5,CAL-12T,0.26
6,ChaGo-K-1,0.152
7,EKVX,0.761
8,EMC-BAC-2,0.716
9,EPLC-272H,0.0687
10,H3255,0.237
11,HARA,0.146
12,HCC-15,0.453
13,HCC-44,0.716
14,HCC-78,0.311
15,HCC-366,0.212
16,HCC-827,0.17
17,HOP-62,0.0821
18,LC-2-ad,0.608
19,LCLC-97TM1,0.0638
20,LCLC-103H,0.402
21,LK-2,0.0762
22,LOU-NH91,0.329
23,NCI-H1703,0.0623
24,NCI-H1792,0.0881
